Results as given in publication PMC11558128 (Advanced Science, 2024).
Changes are numbered by the printed parent chain. Positions of bridges follow the written chain, without caps; N, C: chain ends. Residues, ends and D or L forms follow the SMILES beside them.

Assays:
[1] = tested on: other Kv channels (hKv1.1-1.5, rKv2.1, hKv3.1-3.4, mKv4.1, hKv7.2 and hERG); conditions: n = 3-4
[2] = biological target: T1, rKv4.2 T280A (Rattus norvegicus, UniProt Q63881, T280A); experiment: cell-based; conditions: mean ± SEM
T1 construct: expressed in transfected cells; host or cells: HEK293T
T1 sequence (Q63881 1-630 T280A): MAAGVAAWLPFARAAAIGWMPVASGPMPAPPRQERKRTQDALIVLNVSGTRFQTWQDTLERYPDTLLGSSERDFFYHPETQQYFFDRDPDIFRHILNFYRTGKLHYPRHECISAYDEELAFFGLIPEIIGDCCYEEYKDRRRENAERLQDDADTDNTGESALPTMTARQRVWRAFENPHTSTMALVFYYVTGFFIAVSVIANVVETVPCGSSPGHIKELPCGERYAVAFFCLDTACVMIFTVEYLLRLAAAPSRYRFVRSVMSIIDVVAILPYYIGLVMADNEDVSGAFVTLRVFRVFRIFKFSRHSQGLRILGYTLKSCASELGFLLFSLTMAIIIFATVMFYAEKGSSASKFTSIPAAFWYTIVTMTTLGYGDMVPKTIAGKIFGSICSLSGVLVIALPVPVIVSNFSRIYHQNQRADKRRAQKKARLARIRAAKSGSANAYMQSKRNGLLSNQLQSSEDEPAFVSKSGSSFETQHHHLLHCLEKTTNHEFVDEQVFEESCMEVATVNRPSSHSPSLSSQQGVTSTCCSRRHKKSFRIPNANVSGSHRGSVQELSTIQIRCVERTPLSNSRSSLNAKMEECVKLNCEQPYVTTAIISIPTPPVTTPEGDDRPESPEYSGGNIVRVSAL

[3] = biological target: T2, rKv4.3 (Rattus norvegicus, UniProt Q62897); experiment: cell-based; conditions: whole-cell patch clamp, HEK293T, mean ± S.E.M., SEM
T2 construct: expressed in transfected cells; host or cells: HEK293T
T2 sequence (Q62897 1-655): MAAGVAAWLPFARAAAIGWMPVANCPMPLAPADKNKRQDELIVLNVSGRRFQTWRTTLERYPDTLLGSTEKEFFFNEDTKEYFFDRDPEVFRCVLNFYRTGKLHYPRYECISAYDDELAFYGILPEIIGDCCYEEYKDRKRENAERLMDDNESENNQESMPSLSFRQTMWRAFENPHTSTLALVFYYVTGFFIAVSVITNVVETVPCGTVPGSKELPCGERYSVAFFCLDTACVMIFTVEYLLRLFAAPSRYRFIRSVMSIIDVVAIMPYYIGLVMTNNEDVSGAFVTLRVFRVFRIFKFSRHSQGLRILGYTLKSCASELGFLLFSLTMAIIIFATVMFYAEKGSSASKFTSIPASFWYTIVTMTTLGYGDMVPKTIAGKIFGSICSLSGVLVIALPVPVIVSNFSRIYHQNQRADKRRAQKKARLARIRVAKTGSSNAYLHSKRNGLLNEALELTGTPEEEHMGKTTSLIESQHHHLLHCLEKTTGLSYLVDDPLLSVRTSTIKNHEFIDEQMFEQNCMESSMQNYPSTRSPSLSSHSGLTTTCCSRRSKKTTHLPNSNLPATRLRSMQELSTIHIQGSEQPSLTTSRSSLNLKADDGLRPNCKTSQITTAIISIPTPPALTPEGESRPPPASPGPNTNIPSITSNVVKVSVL

[4] = biological target: T3, rKv4.2 (Rattus norvegicus, UniProt Q63881); experiment: cell-based; conditions: whole-cell patch clamp, HEK293T; mean ± SEM, n = 3-8; SEM; read-out: IC50 on rKv4.2 WT
T3 construct: expressed in transfected cells; host or cells: HEK293T
T3 sequence (Q63881 1-630): T1 sequence (Q63881 1-630 T280A) with A280T

[5] = biological target: T4, rKv4.2 N282A (Rattus norvegicus, UniProt Q63881, N282A); experiment: cell-based; conditions: mean ± SEM
T4 construct: expressed in transfected cells; host or cells: HEK293T
T4 sequence (Q63881 1-630 N282A): T1 sequence (Q63881 1-630 T280A) with A280T, N282A

[6] = held at -80 mV, step to 0 mV, n = 3-8

Row | Structure (SMILES) | effect on the current traces of other Kv channels ([1]; 1 µM toxin) | IC50 [2] [nM] | IC50 [3, 6] [nM] | IC50 [4] [nM] | IC50 [5] [nM] | inhibition on other Kv channel subtypes ([1]; 10 µM) | IC50 ([3]; n = 5) [nM]
1 | CC(C)C[C@H](NC(=O)[C@H](Cc1ccc(O)cc1)NC(=O)[C@@H](NC(=O)[C@H](CCCCN)NC(=O)[C@@H]1CSSC[C@@H]2NC(=O)[C@H](CCC(=O)O)NC(=O)[C@H](CC(N)=O)NC(=O)[C@H](CCCCN)NC(=O)CNC(=O)[C@@H]3CCCN3C(=O)[C@H]([C@@H](C)O)NC(=O)[C@@H]3CSSC[C@H](NC(=O)[C@H](C)NC(=O)[C@H](Cc4ccc(O)cc4)NC(=O)[C@H](CC(N)=O)NC(=O)[C@@H]4CCCN4C(=O)[C@H](CSSC[C@H](NC(=O)CN)C(=O)N[C@@H](CCCCN)C(=O)NCC(=O)N[C@@H](Cc4ccccc4)C(=O)NCC(=O)N[C@@H](CC(=O)O)C(=O)N[C@@H](CO)C(=O)N3)NC2=O)C(=O)N[C@@H](CO)C(=O)N[C@@H](CO)C(=O)N[C@@H](CCCCN)C(=O)N[C@@H](Cc2c[nH]cn2)C(=O)N[C@@H](CCCCN)C(=O)N[C@@H](Cc2c[nH]c3ccccc23)C(=O)N1)C(C)C)C(N)=O [HNTX-III] (H-GCKGFGDSCTPGKNECCPNYACSSKHKWCKVYL-NH2; disulfide 2-17, 9-22, 16-29) | no obvious or only minimal effect | 38 ± 14 | 373 ± 65.5 | 162 ± 23 | 8 ± 2 | – | –
2 | CC[C@H](C)[C@H](NC(=O)[C@H](CCC(=O)O)NC(=O)[C@H](Cc1ccc(O)cc1)NC(=O)[C@H](CCCCN)NC(=O)[C@@H]1CSSC[C@@H]2NC(=O)[C@H](CCC(N)=O)NC(=O)[C@H](CC(=O)O)NC(=O)[C@H](CC(N)=O)NC(=O)[C@H](CO)NC(=O)[C@@H]3CCCN3C(=O)[C@H](CC(N)=O)NC(=O)[C@@H]3CSSC[C@H](NC(=O)[C@H](C(C)C)NC(=O)[C@H](CC(C)C)NC(=O)[C@H](CC(N)=O)NC(=O)[C@H](CO)NC(=O)[C@H](CO)NC(=O)[C@H](CCCCN)NC(=O)[C@H](CSSC[C@H](NC(=O)[C@@H](N)CCC(=O)O)C(=O)N[C@@H](CC(C)C)C(=O)NCC(=O)N[C@@H](Cc4ccccc4)C(=O)NCC(=O)N[C@@H](CCCCN)C(=O)NCC(=O)N3)NC2=O)C(=O)N[C@@H](CO)C(=O)N[C@@H](CCCNC(=N)N)C(=O)N[C@@H](CCCCN)C(=O)N[C@@H](Cc2c[nH]cn2)C(=O)N[C@@H](CCCNC(=N)N)C(=O)N[C@@H](Cc2c[nH]c3ccccc23)C(=O)N1)C(N)=O [HNTX-IV] | – | 136 ± 21 | 189 ± 14.7 | 51 ± 10 | 11 ± 2 | – | –
3 | CSCC[C@@H]1NC(=O)CNC(=O)[C@H](CCC(=O)O)NC(=O)[C@@H]2CSSC[C@H](NC(=O)[C@@H](N)Cc3ccc(O)cc3)C(=O)N[C@@H](CCC(N)=O)C(=O)N[C@@H](CCCCN)C(=O)N[C@@H](Cc3c[nH]c4ccccc34)C(=O)N[C@@H](CCSC)C(=O)N[C@@H](Cc3c[nH]c4ccccc34)C(=O)N[C@@H]([C@@H](C)O)C(=O)N[C@H]3CSSC[C@H](NC(=O)[C@H](C(C)C)NC1=O)C(=O)N[C@@H](CCCNC(=N)N)C(=O)N[C@@H](CC(C)C)C(=O)N[C@@H](Cc1c[nH]c4ccccc14)C(=O)N[C@H](C(=O)N[C@@H](CCCCN)C(=O)N[C@@H](CCCCN)C(=O)N[C@@H](CCCCN)C(=O)N[C@@H](CC(C)C)C(=O)N[C@@H](Cc1c[nH]c4ccccc14)C(=O)O)CSSC[C@H](NC(=O)[C@H](CCCCN)NC(=O)[C@H](CCCNC(=N)N)NC(=O)[C@H](CCC(=O)O)NC(=O)[C@H](CO)NC(=O)[C@H](CC(=O)O)NC3=O)C(=O)N2 [ProTx-II] | – | 89 ± 21 | 5.1 ± 0.4 | 5 ± 2 | 7 ± 1 | – | –
4 | CC[C@H](C)[C@@H]1NC(=O)[C@@H]2CSSC[C@@H]3NC(=O)[C@H](C(C)C)NC(=O)[C@H](CC(C)C)NC(=O)[C@H](CC(N)=O)NC(=O)[C@@H]4CCCN4C(=O)[C@H](CCCNC(=N)N)NC(=O)[C@H](CSSC[C@H](NC(=O)[C@@H](N)CC(=O)O)C(=O)N[C@@H](CC(C)C)C(=O)NCC(=O)N[C@@H](C)C(=O)N[C@@H](Cc4ccccc4)C(=O)N[C@@H](CCCNC(=N)N)C(=O)N[C@@H](CCCCN)C(=O)N2)NC(=O)[C@H](CSSC[C@@H](C(=O)N[C@@H](CCCCN)C(=O)N[C@@H](Cc2ccc(O)cc2)C(=O)N[C@H](C(=O)N[C@@H](Cc2ccccc2)C(N)=O)C(C)C)NC(=O)[C@H](Cc2c[nH]c4ccccc24)NC(=O)[C@H](CCCNC(=N)N)NC(=O)[C@H](Cc2c[nH]cn2)NC(=O)[C@H](C)NC(=O)[C@H](CO)NC(=O)[C@H](CO)NC3=O)NC(=O)[C@H](CCCCN)NC(=O)[C@H](CC(=O)O)NC(=O)[C@H](CC(N)=O)NC(=O)[C@H](CC(=O)O)NC(=O)[C@@H]2CCCN2C1=O [mGpTx1-SA] (H-DCLGAFRKCIPDNDKCCRPNLVCSSAHRWCKYVF-NH2; disulfide 2-17, 9-23, 16-30) | – | – | – | 30000 ± 9000 | – | low inhibition | 2000 ± 300
